The source of these data is patent US7781580B2, “Stilbene derivatives as new cancer therapeutic agents” (Virginia Commonwealth University, priority 2007, dated 2010).

The structures appear in SMILES notation. Counter-ions that a name gives are not always drawn. Like-named read-outs stand apart in the source and are kept apart here. Some results are limits rather than exact numbers.

In data set [1] the test system is UCI101 ovarian cancer cells. The data set is described as follows: Western blot of signal transduction events, UCI101. In kind it is cell-based. The conditions noted are these: for phosphorylation of Chk1: 36 hours. As for the experimental part:
All these agents are microtubule interfering agents but with different binding sites. Cells were harvested at 0, 4, 8, 16 and 36 hours after drug treatment for Western blot analysis. […] Phosphorylation of both Cdc25C and Cdc2 disappeared after 16 hours and slightly recovered at 36 hours. […] Akt phosphorylation decreased after 16 hours of treatment.
In order to understand the mechanism of resistance of stilbenes, various signal transduction pathways were investigated to examine how cells respond to stilbene treatment. UCI101 ovarian cancer cells were treated with stilbenes 4a, 4c or paclitaxel (Taxol) at 0.1 μM for 0, 4, 8, 16 and 36 hours. Cells were harvested for Western blotting. Changes in the kinases involved in cell cycle progression from G2-M transition were first determined in Cdc2, Cdc25c, and mitotic spindle check point regulator BubR1. […] 36 hours after treatment, rephosphorylation of Cdc2 was observed. […] The higher molecular weight isomer of Cdc25c, the mitotic form, increased at 16 and 36 hours. […] A similar study was then performed with other microtubule interfering agents such as combretastatin A4, 13a and vincristine for comparison. A similar trend was observed among these three microtubule interfering agents (FIG. 18).

The next data set has as its system Tubulin (>99% pure). Description: tubulin polymerization assay (OD 340 nm). In kind it is biochemical. Particulars: OD340 nm; nocodazole and paclitaxel 10 μM. Here is the method:
FIG. 3a-d. Stilbenes inhibit tubulin polymerization. (a) Effect of stilbene 4a. Pure tubulin was incubated with various concentrations of stilbene 4a, 10 μM nocodazole, and 10 μM paclitaxel in the polymerization buffer. The OD at 340 nm was monitored every minute by SpectraMAX 250 and plotted against time. (b) Effect of stilbene 4c. (c) Comparison of same concentrations of stilbenes 4a, 4a trans, 4c and 4c trans with control. […] Tubulin was incubated with [^3H]-colchicine and various concentrations of different stilbenes for 20 min. Tubulin was then separated from the unbound [^3H]-colchicine by Microcon-30 and washed three times with PBS. The radioactivity of the tubulin was counted. […] All experiments were done in triplicates.
The tubulin polymerization assay kit was purchased from Cytoskeleton (Denver, Colo.). Tubulin (>99% pure) was mixed with general tubulin buffer (GTB, 80 mM PIPES pH 6.9, 2 mM MgCl2, 0.5 mM EGTA, and 1 mM GTP) in a 96-well plate at 37° C. Absorbance at 340 nm was measured every 1 min for 60 min by SpectraMAX 250 (Molecular Devices, Sunnyville, Calif.). Analysis of the results was performed by SoftMAX Pro version 1.2.0 from the same company.

A further data set deals with HL60 cells. The conditions noted are these: cited from earlier work; for IC50: read-out: IC50, induction of HL60 apoptosis.
The test system of data set [2] is UCI101 ovarian cancer cells. Description: Alamar Blue cell growth inhibition, UCI101. In kind it is cell-based. Particulars: UCI101, 48 hours. Here is the method: Cell growth was measured by AlamarBlue™ staining and the percentage of cell growth inhibition was calculated and compared with the control cells that were treated with 0.1% DMSO, the vehicles for the stilbene compounds.
Cells were treated with the tested drug for 2 days before analysis of cell growth by Alamar Blue™ staining. Cells treated with 0.1% DMSO were used as control and set as 100%.
(a) In vitro sensitivity of UCI101 cells toward three potential stilbene prodrugs, 5a-c, was tested in 96-well plates using Alamar Blue™ assays to determine cell growth inhibition. […] (b) 5b induces cell cycle change and apoptosis in UCI101 cells. Cells were incubated with 5b at 1, 3, 10 μM for 16 hours followed by PI staining and flow cytometry analysis. A subG0/1 population, representing apoptotic cells, appeared along with a decrease of the G1/G2 ratio after cells were treated with 3 μM 5b. Higher concentration (10 μM) of 5b completely killed cells, as was the case with stilbene 4a at […]. (c) Cells treated with stilbene 4a and 5b were stained with phospho-histone 3B, a mitotic marker. The positive signals of phospho-histone 3B were shown in green and nuclei were stained with DAPI in blue. […] (d) In vivo efficacy of 5b compared with stilbene 4a. Nude mice were injected with UCI101 ovarian cancer cells and treated with 7 doses of 5b,c or stilbene 4a every 2-3 days. Tumor volume was calculated and plotted against days.
(§1) Various cancer cell lines were grown in 96-well plates for drug sensitivity assays. Once cells achieved 50% confluence, the incubation media was changed to the same cell growth media with different concentrations of the tested compounds or vehicle alone. Cells were then incubated for 48 hours before the cell growth inhibition study. To determine the degree of cell growth inhibition, 1/10 volume of Alamar Blue™ solution was added to each well and optical density (OD) at 570 and 600 nm was determined. The percentage of growth inhibition was calculated according to the manufacturer's formula as follows: The percentage of growth is [(117216×A570)−(80586×A600)]/[(117216×A^o570)−(80586×A^o600)]×100. In this formula, A570 is the absorbance of the treated samples at 570 nm; A600 is the absorbance of the treated samples at 600 nm; A^o570 is the absorbance of the […] samples at 570 nm; and A^o600 is the absorbance of the untreated samples at 600 nm. The two constants, 117216 and 80586, are the extinction coefficients of Alamar Blue™ at 570 and 600 nm respectively. Each concentration was repeated in triplicate to minimize the error.
(§2) We first tested the cytotoxic effect of various stilbene derivatives for their in vitro efficacy of suppressing tumor cell proliferation. Cells were first plated in 96-well plates at 50% confluence and treated with 0, 0.01, 0.03, 0.1, 0.3, 1.0, 3.0, 10 μM concentrations of stilbene derivatives for 48 hours in triplicate. Alamar Blue™ reagent was added into each well at 1/10 volume and incubated for 2 hours before quantification of the absorbance at 570 and 600 nm.
Background: Alamar Blue is a resazurin reagent that responds to reducing activity.

In a further data set the test system is MDA-MB231 cells. Description: immunofluorescent staining of tubulin, MDA-MB231. It is filed as cell-based. Particulars: CA4 10 nM, stilbene 4a 100 nM, vincristine 100 nM, 5b 3 μM; 16 hours. The text has this:
Nuclei were stained with 4′,6-diamidino-2-phenylindole (DAPI). Control cells show the reticular pattern of the microtubule network.

For data set [3], the system named is SNU423 hepatocellular carcinoma cells. The data set is described as follows: Alamar Blue cell growth inhibition, SNU423. It is filed as cell-based. Here is the method: Cell growth was measured by Alamar Blue™ staining and the OD absorbance at 570 and 600 nm was determined by a microplate reader. The percentage of cell growth inhibition was calculated and compared with the control cells that were treated with 0.1% DMSO, the vehicle for the stilbene compounds.
as §1, §2

The subject of data set [4] is SKOV3 ovarian cancer cells. The data set is described as follows: Alamar Blue cell growth inhibition, SKOV3. It is filed as cell-based. Particulars: for effective / active concentration: SKOV3, 48 hours. As for the experimental part:
Cells were incubated with various concentrations of the compounds for 48 hours. Cell growth was measured by Alamar Blue™ staining and the percentage of cell growth inhibition was calculated and compared with the control cells that were treated with 0.1% DMSO, the vehicle for the stilbene compounds.
as §1

The conditions of data set [5]: in vivo; cited from earlier work.
The nature of data set [6]: acute toxicity in dose escalating study. In kind it is in vivo, mice. As for the experimental part:
Acute toxicity in dose escalating study: We investigated the efficacy of stilbene 4a in vivo using mouse xenograft model. First we determined the maximal tolerated dose of stilbene 4a since it has a higher potency in vitro. […] Subsequently mice fully recovered 30 min after injection.

Data set [7] has as its system MDA-MB231 breast cancer cells. Description: Alamar Blue cell growth inhibition, MDA-MB231. In kind it is cell-based. The conditions noted are these: Homo sapiens, MDA-MB-231; MDA-MB231. As for the experimental part: Cell growth was measured by Alamar Blue™ staining and the percentage of cell growth inhibition was calculated and compared with control cells that were treated with 0.1% DMSO, the vehicles for the stilbene compounds.
as §1, §2

For data set [8], the system named is MiaPaCa2 pancreatic cancer cells. The data set is described as follows: Alamar Blue cell growth inhibition, MiaPaCa2. In kind it is cell-based. Particulars: Homo sapiens, MIA PaCa-2; MiaPaCa2. Here is the method: as §1, §2

For `CC(=O)O[C@H]1C(=O)[C@@]2(C)[C@H]([C@H](OC(=O)c3ccccc3)[C@]3(O)C[C@H](OC(=O)[C@H](O)[C@@H](NC(=O)c4ccccc4)c4ccccc4)C(C)=C1C3(C)C)[C@]1(OC(C)=O)CO[C@@H]1C[C@@H]2O` [paclitaxel, reference compound], the “phosphorylation of Cdc2 at Tyr15” value in [1] (0.1 μM, 16 hours) is listed as “decreased dramatically”. The “phosphorylation of Chk1” value in [1] is listed as “do not cause more phosphorylation of Chk1”. In addition, the “effect on tubulin polymerization” value in the data set with Tubulin (>99% pure) is given as “enhanced”.

With `COc1cc(/C=C\c2ccc(OC)c(O)c2)cc(OC)c1` [stilbene 6c, cis-3,4′,5-trimethoxy-3′-hydroxystilbene], the “cytotoxicity under overexpression of MDR gene” value with HL60 cells is on record as “not affected by overexpression of multiple-drug resistant (MDR) gene”. In the data set with HL60 cells (Roberti et al.), the IC50 (commonly the midpoint of a concentration-inhibition curve) is 0.03 µM.

On to `CC[C@]1(O)C[C@H]2CN(CCc3c([nH]c4ccccc34)[C@@](C(=O)OC)(c3cc4c(cc3OC)N(C=O)[C@H]3[C@@](O)(C(=O)OC)[C@H](OC(C)=O)[C@]5(CC)C=CCN6CC[C@]43[C@@H]65)C2)C1` [vincristine, reference compound], for which the “relative potency / activity” value in [2] was “about equal in their potency”. Moreover, the microtubule pattern entry with MDA-MB231 cells is “fine granular pattern without formation of microtubules”. The “relative potency” value in data set [3] (SNU423) is “equivalent”. Also, the “phosphorylation of Stat3” value in data set [1] (0.1 μM) was “more pronounced”. Further, the “phosphorylation of Chk1” value in [1] is listed as “do not cause more phosphorylation of Chk1”. For the same compound, the IC50 in [4] (Homo sapiens, SK-OV-3, SKOV, read-out: IC50) lay in the range of 0.05 to 0.1 µM. The “effective / active concentration” value in data set [4] stood at 0.1 µM.

Turning to `COc1cc2c(c(OC)c1OC)-c1ccc(OP(=O)(O)O)cc1[C@@H](NC(C)=O)CC2` [ZD6126], the “toxicity in phase I clinical trials” value in [5] is “cardiac toxicity (such as decreasing left ventricular ejection fraction) and dose limiting toxicity were observed”.

As to `COc1cc(/C=C\c2ccc(OC)c(N)c2)cc(OC)c1` [stilbene 5c, cis-3,4′,5-trimethoxy-3′-aminostilbene], the “acute toxicity at 6 or 33 mg/kg” value in [6] (6 or 33 mg/kg intravenously) is “did not cause any acute toxicity”. In [6] (72 and 97 mg/kg intravenously), the “acute toxicity at 72 and 97 mg/kg” value was “transient weakness as shown by dragging feet and sluggish movement”; the “time to full recovery after injection” value stood at 30 min. Further, in the data set with HL60 cells (Roberti et al.), the “cytotoxicity under overexpression of MDR gene” value is “not affected by overexpression of multiple-drug resistant (MDR) gene” and the IC50 was 0.03 µM.

With `COc1cc(/C=C\c2ccc(OC)c(N)c2)cc(OCCO)c1` [10a, (Z)-2-{3-[2-(3-Amino-4-methoxy-phenyl)-vinyl]-5-methoxy-phenoxy}-ethanol, hydrochloride], the IC50 in [3] (Homo sapiens, SNU-423, 48 h, read-out: IC50 (50% growth inhibition), SNU423, 48 hours) is at most 0.3 µM; in data set [3] (read-out: IC50 (50% growth inhibition), SNU423, 48 hours, hydrochloride), 0.3 µM; in [7], 0.08 µM; in [8] it was 0.3 µM. Moreover, in data set [4] (SKOV3), the “activity” value is “also effective”. Also, in data set [4], the “effective / active concentration” value is 0.1 µM.
